Experimental data taken from US20170152226A1, “FUNCTIONALISED AND SUBSTITUTED INDOLES AS ANTI-CANCER AGENTS” (Novogen Ltd., priority 2014, published 2017).
pIC50: −log10 of the molar value. Where two headings read alike, the source gives them in different places.

How the values were obtained:
Assay in all cases: Anti-proliferative activity, cell-titre luminescent viability assay
Format in all cases: cell-based
[1] = tested on: A549; conditions: Homo sapiens, read-out: IC50 Lung (NSLC) A549
Method: (§1) The ability of compounds 3501-3540 and 3542-3545 to inhibit the proliferation of cancer cells representative of neuroblastoma, melanoma, prostate cancer, colorectal cancer, non-small cell lung carcinoma, and triple negative breast cancer was assessed. Briefly, a pre-determined number of cells as calculated from cell growth assays for each of the cell lines employed were seeded into their respective culture medium (using ATCC culture parameters—http://www.atcc.org) and cultured for 24 hours at 37° C. and 5% CO2 in 96-well culture plates. Once attached, each cell line was then exposed to increasing concentrations of each respective analogue (0.03, 0.3, 3 and 30 μM for compounds in Table 1; 0.1, 0.3, 1, 3, 10 and 30 μM for compounds in Table 2), cultured for a further 72 hours and exposed to cell-titre luminescent reagent (100 μL/well) for a further 30 min) to assess for cell viability. Luminescence was captured using an EnVision multilabel reader and the data for each analogue concentration was normalized, as a percentage, to the no treatment control. For compounds 3501, 3503, 3505-08, 3512-18, 3520, 3522-24 and 3531-36, semi-log plots of Percent of Control versus concentration were prepared and IC50 determined using linear regression analysis. For compounds 3502, 3504, 3509-11, 3519, 3521, 3525-30, 3537-40 and 3542-45, cell viability was normalized to control (vehicle alone) and dose-response curves, and half maximal effective concentration (EC50) values were determined using Graph Pad Prism 6 (nonlinear regression sigmoidal dose-response variable slope).

[2] = tested on: CaCo2; conditions: Homo sapiens, read-out: IC50 Colorectal CaCo2
Method: as §1

[3] = tested on: DU145; conditions: Homo sapiens, read-out: IC50 Prostate DU145
Method: as §1

[4] = tested on: MDA-MB-231; conditions: Homo sapiens, read-out: IC50 Breast MDA-MB-231
Method: as §1

[5] = tested on: PC3; conditions: Homo sapiens, read-out: IC50 Prostate PC3
Method: as §1

[6] = tested on: SK-Mel-28; conditions: Homo sapiens, SK-MEL-28, 72 hours, read-out: IC50 Melanoma SK-Mel-28
Method: as §1

[7] = tested on: SK-N-SH; conditions: Homo sapiens, SK-N-SH, read-out: IC50 Neuroblastoma SK-N-SH
Method: as §1

[8] = A549, 72 h, 0.03, 0.3, 3 and 30 μM, linear regression of semi-log plots
[9] = Caco-2, 72 h, 0.03, 0.3, 3 and 30 μM, linear regression of semi-log plots
[10] = DU-145, 72 h, 0.03, 0.3, 3 and 30 μM, linear regression of semi-log plots
[11] = MDA-MB-231, 72 h, 0.03, 0.3, 3 and 30 μM, linear regression of semi-log plots
[12] = PC-3, 72 h, 0.03, 0.3, 3 and 30 μM, linear regression of semi-log plots
[13] = 0.03, 0.3, 3 and 30 μM, linear regression of semi-log plots
[14] = 72 h, 0.03, 0.3, 3 and 30 μM, linear regression of semi-log plots
[15] = A549, 72 h, 0.1, 0.3, 1, 3, 10 and 30 μM, nonlinear regression sigmoidal dose-response (EC50)
[16] = Caco-2, 72 h, 0.1, 0.3, 1, 3, 10 and 30 μM, nonlinear regression sigmoidal dose-response (EC50)
[17] = DU-145, 72 h, 0.1, 0.3, 1, 3, 10 and 30 μM, nonlinear regression sigmoidal dose-response (EC50)
[18] = MDA-MB-231, 72 h, 0.1, 0.3, 1, 3, 10 and 30 μM, nonlinear regression sigmoidal dose-response (EC50)
[19] = PC-3, 72 h, 0.1, 0.3, 1, 3, 10 and 30 μM, nonlinear regression sigmoidal dose-response (EC50)
[20] = 0.1, 0.3, 1, 3, 10 and 30 μM, nonlinear regression sigmoidal dose-response (EC50)
[21] = 72 h, 0.1, 0.3, 1, 3, 10 and 30 μM, nonlinear regression sigmoidal dose-response (EC50)

| Compound | pIC50 [1, 8] | pIC50 [2, 9] | pIC50 [3, 10] | pIC50 [4, 11] | pIC50 [5, 12] | pIC50 [6, 13] | pIC50 [7, 14] | pIC50 [1, 15] | pIC50 [2, 16] | pIC50 [3, 17] | pIC50 [4, 18] | pIC50 [5, 19] | pIC50 [6, 20] | pIC50 [7, 21] |
| --- | --- | --- | --- | --- | --- | --- | --- | --- | --- | --- | --- | --- | --- | --- |
| COc1ccc(CCN2CCN(C(=O)c3cccc(Cc4ccc5c(c4)c(C)c(C)n5CCCN4CCN(C)CC4)c3)CC2)cc1 [Compound 3502, (3-((2,3-dimethyl-1-(3-(4-methylpiperazin-1-yl)propyl)-1H-indol-5-yl)methyl)phenyl)(4-(4-methoxyphenethyl)piperazin-1-yl)methanone] |  |  |  |  |  |  |  | 5.30 | 5.24 | 5.31 | 5.31 | 5.27 | 5.59 | 5.34 |
| Cc1c(C)n(CCCN2CCN(C)CC2)c2ccc(Oc3cccc(C(=O)N4CCN(CCc5ccc6c(c5)OCO6)CC4)c3)cc12 [Compound 3509, (4-(2-(benzo[d][1,3]dioxol-5-yl)ethyl)piperazin-1-yl)(3-((2,3-dimethyl-1-(3-(4-methylpiperazin-1-yl)propyl)-1H-indol-5-yl)oxy)phenyl)methanone] |  |  |  |  |  |  |  | 5.33 | 5.28 | 5.23 | 5.30 | 5.16 | 5.29 | 5.28 |
| Cc1c(C)n(CCCN2CCN(C)CC2)c2ccc(Oc3cccc(C(=O)N4CCN(CCc5cccc(F)c5)CC4)c3)cc12 [Compound 3510, (3-((2,3-dimethyl-1-(3-(4-methylpiperazin-1-yl)propyl)-1H-indol-5-yl)oxy)phenyl)(4-(3-fluorophenethyl)piperazin-1-yl)methanone] |  |  |  |  |  |  |  | 5.22 | 5.24 | 5.10 | 4.69 | 5.10 | 5.31 | 5.34 |
| COc1cccc(CCN2CCN(C(=O)c3cccc(Oc4ccc5c(c4)c(C)c(C)n5CCCN4CCN(C)CC4)c3)CC2)c1 [Compound 3511, (3-((2,3-dimethyl-1-(3-(4-methylpiperazin-1-yl)propyl)-1H-indol-5-yl)oxy)phenyl)(4-(3-methoxyphenethyl)piperazin-1-yl)methanone] |  |  |  |  |  |  |  | 5.59 | 5.46 | 5.48 | 4.71 | 5.59 | 5.19 | 5.68 |
| Cc1c(C)n(CCCN2CCN(C)CC2)c2ccc(Nc3cccc(C(=O)N4CCN(CCc5ccc6c(c5)OCO6)CC4)c3)cc12 [Compound 3515, (4-(2-(benzo[d][1,3]dioxol-5-yl)ethyl)piperazin-1-yl)(3-((2,3-dimethyl-1-(3-(4-methylpiperazin-1-yl)propyl)-1H-indol-5-yl)amino)phenyl)methanone] | 5.37 | 5.34 | 5.40 | 5.48 | 5.31 | 5.57 | 5.47 |  |  |  |  |  |  |  |
| COc1cccc(CCN2CCN(C(=O)c3cccc(Nc4ccc5c(c4)c(C)c(C)n5CCCN4CCN(C)CC4)c3)CC2)c1 [Compound 3517, (3-((2,3-dimethyl-1-(3-(4-methylpiperazin-1-yl)propyl)-1H-indol-5-yl)amino)phenyl)(4-(3-methoxyphenethyl)piperazin-1-yl)methanone] | 5.36 | < 4.52 | 5.15 | 5.28 | 4.68 | 5.43 | 5.35 |  |  |  |  |  |  |  |

Results, then the compound that gave them:

| pIC50 [1, 8] | pIC50 [2, 9] | pIC50 [3, 10] | pIC50 [4, 11] | pIC50 [5, 12] | pIC50 [6, 13] | pIC50 [7, 14] | pIC50 [1, 15] | pIC50 [2, 16] | pIC50 [3, 17] | pIC50 [4, 18] | pIC50 [5, 19] | pIC50 [6, 20] | pIC50 [7, 21] | Compound |
| --- | --- | --- | --- | --- | --- | --- | --- | --- | --- | --- | --- | --- | --- | --- |
| 5.43 | 5.51 | 5.59 | 5.68 | 5.62 | 5.89 | 5.51 |  |  |  |  |  |  |  | Cc1c(C)n(CCCN2CCN(C)CC2)c2ccc(Cc3cccc(C(=O)N4CCN(CCc5ccc(F)cc5)CC4)c3)cc12 [Compound 3501, (3-((2,3-dimethyl-1-(3-(4-methylpiperazin-1-yl)propyl)-1H-indol-5-yl)methyl)phenyl)(4-(4-fluorophenethyl)piperazin-1-yl)methanone] |
| 5.85 | 5.47 | 5.68 | 6.00 | 5.62 | 6.00 | 5.68 |  |  |  |  |  |  |  | Cc1c(C)n(CCCN2CCN(C)CC2)c2ccc(Cc3cccc(C(=O)N4CCN(CCc5ccc6c(c5)OCO6)CC4)c3)cc12 [Compound 3503, (4-(2-(benzo[d][1,3]dioxol-5-yl)ethyl)piperazin-1-yl)(3-((2,3-dimethyl-1-(3-(4-methylpiperazin-1-yl)propyl)-1H-indol-5-yl)methyl)phenyl)methanone] |
| 5.51 | 5.44 | 5.47 | 5.55 | 5.59 | 5.60 | 5.59 |  |  |  |  |  |  |  | COc1cccc(CCN2CCN(C(=O)c3cccc(Cc4ccc5c(c4)c(C)c(C)n5CCCN4CCN(C)CC4)c3)CC2)c1 [Compound 3505, (3-((2,3-dimethyl-1-(3-(4-methylpiperazin-1-yl)propyl)-1H-indol-5-yl)methyl)phenyl)(4-(3-methoxyphenethyl)piperazin-1-yl)methanone] |
| 5.52 | 5.57 | 5.49 | 5.72 | 5.68 | 5.89 | 5.43 |  |  |  |  |  |  |  | Cc1c(C)n(CCCN2CCN(C)CC2)c2ccc(Cc3cccc(C(=O)N4CCN(CCc5ccccc5)CC4)c3)cc12 [Compound 3506, (3-((2,3-dimethyl-1-(3-(4-methylpiperazin-1-yl)propyl)-1H-indol-5-yl)methyl)phenyl)(4-phenethylpiperazin-1-yl)methanone] |
| 5.74 | 5.51 | 5.51 | 5.74 | 5.62 | 5.80 | 5.77 |  |  |  |  |  |  |  | COc1ccc(CCN2CCN(C(=O)c3cccc(Oc4ccc5c(c4)c(C)c(C)n5CCCN4CCN(C)CC4)c3)CC2)cc1 [Compound 3508, (3-((2,3-dimethyl-1-(3-(4-methylpiperazin-1-yl)propyl)-1H-indol-5-yl)oxy)phenyl)(4-(4-methoxyphenethyl)piperazin-1-yl)methanone] |
| 5.89 | 5.49 | 5.89 | 5.92 | 5.68 | 6.15 | 5.74 |  |  |  |  |  |  |  | Cc1c(C)n(CCCN2CCN(C)CC2)c2ccc(Oc3cccc(C(=O)N4CCN(CCc5ccccc5)CC4)c3)cc12 [Compound 3512, (3-((2,3-dimethyl-1-(3-(4-methylpiperazin-1-yl)propyl)-1H-indol-5-yl)oxy)phenyl)(4-phenethylpiperazin-1-yl)methanone] |
| 5.48 | 5.51 | 5.42 | 5.44 | 5.40 | 5.47 | 5.48 |  |  |  |  |  |  |  | Cc1c(C)n(CCCN2CCN(C)CC2)c2ccc(Nc3cccc(C(=O)N4CCN(CCc5ccc(F)cc5)CC4)c3)cc12 [Compound 3513, (3-((2,3-dimethyl-1-(3-(4-methylpiperazin-1-yl)propyl)-1H-indol-5-yl)amino)phenyl)(4-(4-fluorophenethyl)piperazin-1-yl)methanone] |
| 5.85 | 5.51 | 5.42 | 5.89 | 5.46 | 5.89 | 5.89 |  |  |  |  |  |  |  | COc1ccc(CCN2CCN(C(=O)c3cccc(Nc4ccc5c(c4)c(C)c(C)n5CCCN4CCN(C)CC4)c3)CC2)cc1 [Compound 3514, (3-((2,3-dimethyl-1-(3-(4-methylpiperazin-1-yl)propyl)-1H-indol-5-yl)amino)phenyl)(4-(4-methoxyphenethyl)piperazin-1-yl)methanone] |
